We go through 17 compounds from US7491794B2, “Macrocyclic compounds as inhibitors of viral replication” (Intermune, Inc., priority 2003, dated 2009).

What is called EC50 is the concentration at which the effect is half-maximal. The IC50 is the concentration at which inhibition is half-maximal.

Assay [1] concerns HCV sub-genomic replicon, GS4.3. Kind of assay: Quantitation by ELISA of NPTII in the HCV sub-genomic replicon, GS4.3, Section B. In kind it is cell-based. To be noted: Hepatitis C virus; GS4.3 cells, 72 h incubation; read-out: Replicon EC50. Put shortly: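 GS4.3 cells (HuH-7 carrying HCV 1377/NS3-3′ replicon) were treated 72 h at 37 °C with inhibitors in 3-fold dilutions, 1% DMSO, no G418. Lysate NPTII was measured by ELISA (TMB, 450 nm). Signal as % of DMSO control; EC50 from 4-parameter fit.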
In general terms: In an ELISA, binding on a coated surface is turned into a signal by an enzyme label.

The target of another assay is T1, NS3-NS4A protease (Hepatitis C virus genotype 1a, UniProt P27958).
T1 construct: Recombinant E. coli or Baculovirus full-length NS3 was diluted to 3.33 μM with assay buffer; made in house; host or cells: E. coli or baculovirus (BV) system
Briefly: NS3-NS4A protease assay (NS3 inhibition assay, RETS1 substrate), Section B. To be noted: read-out: NS3-NS4A IC50. The assay is classed as biochemical. The procedure, abridged:
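Full-length NS3 (E. coli or baculovirus) precomplexed with excess NS4A-2 peptide, run at 2 nM (E. coli) or 3 nM (BV) NS3; compounds pre-incubated 10 min at room temperature before RETS1 substrate. Fluorescence (ex 335/em 495 nm) read kinetically 30 min; IC50 from four-parameter fit, converted to Ki via Ki=IC50/(1+[S]/Km).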

T1 sequence (P27958 1027-1657): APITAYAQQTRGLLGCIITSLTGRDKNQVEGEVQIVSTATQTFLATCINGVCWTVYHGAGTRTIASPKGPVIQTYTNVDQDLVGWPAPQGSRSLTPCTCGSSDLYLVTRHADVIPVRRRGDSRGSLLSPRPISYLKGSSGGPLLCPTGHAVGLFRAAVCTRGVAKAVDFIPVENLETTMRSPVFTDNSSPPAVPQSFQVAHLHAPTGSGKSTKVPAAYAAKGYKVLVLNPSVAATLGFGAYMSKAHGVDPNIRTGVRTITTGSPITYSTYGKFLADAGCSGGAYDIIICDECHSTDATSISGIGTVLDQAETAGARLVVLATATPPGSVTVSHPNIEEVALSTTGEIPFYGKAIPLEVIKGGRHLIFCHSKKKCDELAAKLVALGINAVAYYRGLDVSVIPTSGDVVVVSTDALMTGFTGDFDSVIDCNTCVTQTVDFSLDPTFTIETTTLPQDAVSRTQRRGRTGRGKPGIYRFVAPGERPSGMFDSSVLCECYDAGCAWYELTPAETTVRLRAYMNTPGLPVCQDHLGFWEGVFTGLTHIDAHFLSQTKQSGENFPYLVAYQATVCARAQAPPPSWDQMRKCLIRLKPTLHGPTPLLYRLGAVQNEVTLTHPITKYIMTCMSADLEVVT

Turning to `CC(C)(C)NC(=O)N[C@H]1CCCCC/C=C\[C@@H]2C[C@@]2(C(=O)NS(=O)(=O)C2CC2)NC(=O)[C@@H]2C[C@@H](OC(=O)N3CCc4ccccc4C3)CN2C1=O` [AR00320001, (1S,4R,6S,14S,18R)-3,4-Dihydro-1H-isoquinoline-2-carboxylic acid 14-(3-tert-butyl-ureido)-4-cyclopropanesulfonylaminocarbonyl-2,15-dioxo-3,16-diaza-tricyclo[14.3.0.0^4,6]nonadec-7-en-18-yl ester], the EC50 in assay [1] is below 100 nM. Also, at NS3-NS4A protease, the concentration for half-maximal inhibition (IC50) was below 100 nM.

Regarding `O=C(N[C@H]1CCCCC/C=C\[C@@H]2C[C@@]2(C(=O)O)NC(=O)[C@@H]2C[C@@H](OC(=O)N3CCc4ccccc4C3)CN2C1=O)OC1CCOCC1` [AR00320002, (1S,4R,6S,14S,18R)-18-(3,4-Dihydro-1H-isoquinoline-2-carbonyloxy)-2,15-dioxo-14-(tetrahydro-pyran-4-yloxycarbonylamino)-3,16-diaza-tricyclo[14.3.0.0^4,6]nonadec-7-ene-4-carboxylic acid], the EC50 in assay [1] is below 10000 nM. In addition, the IC50 on NS3-NS4A protease is below 1000 nM.

As to `O=C(N[C@H]1CCCCC/C=C\[C@@H]2C[C@@]2(C(=O)NS(=O)(=O)C2CC2)NC(=O)[C@@H]2C[C@@H](OC(=O)N3Cc4ccccc4C3)CN2C1=O)OCCF` [AR00320073, (1S,4R,6S,14S,18R)-1,3-Dihydro-isoindole-2-carboxylic acid 4-cyclopropanesulfonylaminocarbonyl-14-(2-fluoro-ethoxycarbonylamino)-2,15-dioxo-3,16-diaza-tricyclo[14.3.0.0^4,6]nonadec-7-en-18-yl ester], the EC50 in assay [1] is below 100 nM. In addition, the IC50 at NS3-NS4A protease is below 100 nM.

With `O=C(N[C@H]1CCCCC/C=C\[C@@H]2C[C@@]2(C(=O)O)NC(=O)[C@@H]2C[C@@H](OC(=O)N3Cc4ccccc4C3)CN2C1=O)O[C@@H]1CCOC1` [AR00320074, (1S,4R,6S,14S,18R)-18-(1,3-Dihydro-isoindole-2-carbonyloxy)-2,15-dioxo-14-(tetrahydro-furan-3R-yloxycarbonylamino)-3,16-diaza-tricyclo[14.3.0.0^4,6]nonadec-7-ene-4-carboxylic acid], in assay [1], the EC50 is below 10000 nM. Further, on NS3-NS4A protease, the IC50 was below 100 nM.

As for `O=C(N[C@H]1CCCCC/C=C\[C@@H]2C[C@@]2(C(=O)O)NC(=O)[C@@H]2C[C@@H](OC(=O)N3Cc4ccccc4C3)CN2C1=O)O[C@H]1CCOC1` [AR00320075, (1S,4R,6S,14S,18R)-18-(1,3-Dihydro-isoindole-2-carbonyloxy)-2,15-dioxo-14-(tetrahydro-furan-3S-yloxycarbonylamino)-3,16-diaza-tricyclo[14.3.0.0^4,6]nonadec-7-ene-4-carboxylic acid], the concentration for a half-maximal effect (EC50) in assay [1] was below 10000 nM. Also, at NS3-NS4A protease, the half-maximal inhibitory concentration (IC50) was below 1000 nM.

On to `O=C(N[C@H]1CCCCC/C=C\[C@@H]2C[C@@]2(C(=O)O)NC(=O)[C@@H]2C[C@@H](OC(=O)N3Cc4ccccc4C3)CN2C1=O)OCCF` [AR00320076, (1S,4R,6S,14S,18R)-18-(1,3-Dihydro-isoindole-2-carbonyloxy)-2,15-dioxo-14-(2-fluoro-ethoxycarbonylamino)-3,16-diaza-tricyclo[14.3.0.0^4,6]nonadec-7-ene-4-carboxylic acid], for which the EC50 in assay [1] was below 10000 nM. Moreover, the 50% inhibitory concentration (IC50) at NS3-NS4A protease is below 1000 nM.

`O=C(N[C@H]1CCCCC/C=C\[C@@H]2C[C@@]2(C(=O)O)NC(=O)[C@@H]2C[C@@H](OC(=O)N3Cc4ccccc4C3)CN2C1=O)OC1CCOCC1` [AR00320077, (1S,4R,6S,14S,18R)-18-(1,3-Dihydro-isoindole-2-carbonyloxy)-2,15-dioxo-14-(tetrahydro-pyran-4-yloxycarbonylamino)-3,16-diaza-tricyclo[14.3.0.0^4,6]nonadec-7-ene-4-carboxylic acid]: the concentration giving a half-maximal response (EC50) in assay [1] was below 10000 nM. For the same compound, the half-inhibitory concentration (IC50) on NS3-NS4A protease is below 1000 nM.

In the case of `CC(C)(C)NC(=O)N[C@H]1CCCCC/C=C\[C@@H]2C[C@@]2(C(=O)O)NC(=O)[C@@H]2C[C@@H](OC(=O)N3Cc4ccccc4C3)CN2C1=O` [AR00320078, (1S,4R,6S,14S,18R)-14-(3-tert-Butyl-ureido)-18-(1,3-dihydro-isoindole-2-carbonyloxy)-2,15-dioxo-3,16-diaza-tricyclo[14.3.0.0^4,6]nonadec-7-ene-4-carboxylic acid], the concentration giving a half-maximal response (EC50) in assay [1] was below 10000 nM. Further, the IC50 on NS3-NS4A protease was below 100 nM.

Turning to `O=C(N[C@H]1CCCCC/C=C\[C@@H]2C[C@@]2(C(=O)NS(=O)(=O)C2CC2)NC(=O)[C@@H]2C[C@@H](OC(=O)N3Cc4ccccc4C3)CN2C1=O)O[C@@H]1CCOC1` [AR00320079, (1S,4R,6S,14S,18R)-1,3-Dihydro-isoindole-2-carboxylic acid 4-cyclopropanesulfonylaminocarbonyl-2,15-dioxo-14-(tetrahydro-furan-3-yloxycarbonylamino)-3,16-diaza-tricyclo[14.3.0.0^4,6]nonadec-7-en-18-yl ester], the half-maximal effective concentration (EC50) in assay [1] was below 100 nM. Further, on NS3-NS4A protease, the IC50 is below 100 nM.

As to `O=C(N[C@H]1CCCCC/C=C\[C@@H]2C[C@@]2(C(=O)NS(=O)(=O)C2CC2)NC(=O)[C@@H]2C[C@@H](OC(=O)N3Cc4ccccc4C3)CN2C1=O)O[C@H]1CCOC1` [AR00320080, (1S,4R,6S,14S,18R)-1,3-Dihydro-isoindole-2-carboxylic acid 4-cyclopropanesulfonylaminocarbonyl-2,15-dioxo-14-(tetrahydro-furan-3S-yloxycarbonylamino)-3,16-diaza-tricyclo[14.3.0.0^4,6]nonadec-7-en-18-yl ester], in assay [1], the EC50 was below 1000 nM. In addition, the IC50 at NS3-NS4A protease is below 100 nM.

Consider `O=C(N[C@H]1CCCCC/C=C\[C@@H]2C[C@@]2(C(=O)NS(=O)(=O)C2CC2)NC(=O)[C@@H]2C[C@@H](OC(=O)N3Cc4ccccc4C3)CN2C1=O)OC1CCOCC1` [AR00320081, (1S,4R,6S,14S,18R)-1,3-Dihydro-isoindole-2-carboxylic acid 4-cyclopropanesulfonylaminocarbonyl-2,15-dioxo-14-(tetrahydro-pyran-4-yloxycarbonylamino)-3,16-diaza-tricyclo[14.3.0.0^4,6]nonadec-7-en-18-yl ester], for which the half-maximal effective concentration (EC50) in assay [1] was below 100 nM. In addition, the concentration for half-maximal inhibition (IC50) at NS3-NS4A protease is below 100 nM.

With `O=C(N[C@H]1CCCCC/C=C\[C@@H]2C[C@@]2(C(=O)NS(=O)(=O)C2CC2)NC(=O)[C@@H]2C[C@@H](OC(=O)N3CCc4ccccc4C3)CN2C1=O)OC1CCOCC1` [AR00320082, (1S,4R,6S,14S,18R)-3,4-Dihydro-1H-isoquinoline-2-carboxylic acid 4-cyclopropanesulfonylaminocarbonyl-2,15-dioxo-14-(tetrahydro-pyran-4-yloxycarbonylamino)-3,16-diaza-tricyclo[14.3.0.0^4,6]nonadec-7-en-18-yl ester], the EC50 in assay [1] was below 100 nM. In addition, the IC50 at NS3-NS4A protease is below 100 nM.

As for `CC(C)(C)OC(=O)N[C@H]1CCCCC/C=C\[C@@H]2C[C@@]2(C(=O)NS(=O)(=O)C2CC2)NC(=O)[C@@H]2C[C@@H](OC(=O)N3Cc4ccc(Cl)cc4C3)CN2C1=O` [AR00320119, (1S,4R,6S,14S,18R)-5-Chloro-1,3-dihydro-isoindole-2-carboxylic acid 14-tert-butoxycarbonylamino-4-cyclopropanesulfonylaminocarbonyl-2,15-dioxo-3,16-diaza-tricyclo[14.3.0.0^4,6]nonadec-7-en-18-yl ester], the EC50 in assay [1] is below 100 nM. Also, on NS3-NS4A protease, the half-maximal inhibitory concentration (IC50) is below 100 nM.

Turning to `CN(C)c1cccc2c1CCN(C(=O)O[C@@H]1C[C@H]3C(=O)N[C@]4(C(=O)NS(=O)(=O)C5CC5)C[C@H]4/C=C\CCCCC[C@H](NC(=O)OC(C)(C)C)C(=O)N3C1)C2` [AR00320120, (1S,4R,6S,14S,18R)-5-Dimethylamino-3,4-dihydro-1H-isoquinoline-2-carboxylic acid 14-tert-butoxycarbonylamino-4-cyclopropanesulfonylaminocarbonyl-2,15-dioxo-3,16-diaza-tricyclo[14.3.0.0^4,6]nonadec-7-en-18-yl ester], in assay [1], the EC50 was below 100 nM. In addition, the IC50 at NS3-NS4A protease was below 100 nM.

Take `CC(C)(C)OC(=O)N[C@H]1CCCCC/C=C\[C@@H]2C[C@@]2(C(=O)NS(=O)(=O)C2CC2)NC(=O)[C@@H]2C[C@@H](OC(=O)N3Cc4cc(Cl)c(Cl)cc4C3)CN2C1=O` [AR00320121, (1S,4R,6S,14S,18R)-5,6-Dichloro-1,3-dihydro-isoindole-2-carboxylic acid 14-tert-butoxycarbonylamino-4-cyclopropanesulfonylaminocarbonyl-2,15-dioxo-3,16-diaza-tricyclo[14.3.0.0^4,6]nonadec-7-en-18-yl ester]: the EC50 in assay [1] is below 100 nM. Moreover, the half-maximal inhibitory concentration (IC50) on NS3-NS4A protease is below 100 nM.

Regarding `C[C@H]1CN(C(=O)O[C@@H]2C[C@H]3C(=O)N[C@]4(C(=O)O)C[C@H]4C=CCCCCC[C@H](NC(=O)OC(C)(C)C)C(=O)N3C2)Cc2ccccc21` [AR00320122, (1S,4R,6S,14S,18R)-14-tert-Butoxycarbonylamino-18-(4R-methyl-3,4-dihydro-1H-isoquinoline-2-carbonyloxy)-2,15-dioxo-3,16-diaza-tricyclo[14.3.0.0^4,6]nonadec-7-ene-4-carboxylic acid], the concentration for a half-maximal effect (EC50) in assay [1] was below 10000 nM. In addition, the half-maximal inhibitory concentration (IC50) on NS3-NS4A protease was below 1000 nM.

Turning to `C[C@@H]1CN(C(=O)O[C@@H]2C[C@H]3C(=O)N[C@]4(C(=O)O)C[C@H]4/C=C\CCCCC[C@H](NC(=O)OC(C)(C)C)C(=O)N3C2)Cc2ccccc21` [AR00320123, (1S,4R,6S,14S,18R)-14-tert-Butoxycarbonylamino-18-(4S-methyl-3,4-dihydro-1H-isoquinoline-2-carbonyloxy)-2,15-dioxo-3,16-diaza-tricyclo[14.3.0.0^4,6]nonadec-7-ene-4-carboxylic acid], the EC50 in assay [1] is below 10000 nM. In addition, on NS3-NS4A protease, the half-inhibitory concentration (IC50) was below 1000 nM.
